# Experimental data as given in ChEMBL document CHEMBL1143346, “Solid-phase parallel synthesis and SAR of 4-amidofuran-3-one inhibitors of cathepsin S: effect of sulfonamides P3 substituents on potency and selectivity” (Bioorg Med Chem, 2009).
# How the values were obtained:
# [1] = target: T1, Cathepsin K (Homo sapiens, UniProt P43235); assay: Inhibition of human recombinant cathepsin K expressed in baculovirus by fluorescence assay
# T1 sequence (P43235 whole entry): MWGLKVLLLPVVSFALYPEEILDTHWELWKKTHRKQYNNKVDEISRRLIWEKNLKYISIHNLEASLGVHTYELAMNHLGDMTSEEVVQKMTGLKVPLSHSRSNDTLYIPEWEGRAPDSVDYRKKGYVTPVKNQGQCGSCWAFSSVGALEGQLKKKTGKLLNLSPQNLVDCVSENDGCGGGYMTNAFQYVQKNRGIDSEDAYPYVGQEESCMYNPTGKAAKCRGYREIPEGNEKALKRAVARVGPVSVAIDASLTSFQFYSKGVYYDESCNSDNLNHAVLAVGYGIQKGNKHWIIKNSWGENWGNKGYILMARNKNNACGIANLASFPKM
# [2] = target: Cathepsin S (Homo sapiens, UniProt P25774); assay: Inhibition of human recombinant cathepsin S expressed in baculovirus by fluorescence assay
# [3] = target: Procathepsin L (Homo sapiens, UniProt P07711); assay: Inhibition of human cathepsin L by fluorescence assay
# Chain of Procathepsin L (P07711 whole entry): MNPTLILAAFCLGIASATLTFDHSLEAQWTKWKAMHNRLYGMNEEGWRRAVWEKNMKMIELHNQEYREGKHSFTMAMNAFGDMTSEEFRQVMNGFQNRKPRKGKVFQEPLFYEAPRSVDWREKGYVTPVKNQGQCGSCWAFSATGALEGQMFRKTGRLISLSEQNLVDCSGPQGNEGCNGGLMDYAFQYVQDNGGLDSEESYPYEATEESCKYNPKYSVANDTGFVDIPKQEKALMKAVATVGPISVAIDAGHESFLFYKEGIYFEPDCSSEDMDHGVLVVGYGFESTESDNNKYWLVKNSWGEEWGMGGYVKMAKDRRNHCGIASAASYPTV
# Chain of Cathepsin S (P25774 whole entry): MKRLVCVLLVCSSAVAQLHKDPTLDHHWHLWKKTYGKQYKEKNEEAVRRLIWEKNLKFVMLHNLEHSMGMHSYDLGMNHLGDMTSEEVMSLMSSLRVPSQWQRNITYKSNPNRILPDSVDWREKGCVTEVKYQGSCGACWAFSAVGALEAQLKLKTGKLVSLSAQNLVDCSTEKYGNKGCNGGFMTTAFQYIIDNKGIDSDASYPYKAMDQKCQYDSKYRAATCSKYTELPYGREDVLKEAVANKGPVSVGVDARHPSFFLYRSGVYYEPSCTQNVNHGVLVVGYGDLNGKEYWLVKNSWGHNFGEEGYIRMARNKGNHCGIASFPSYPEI
SMILES,Ki [1],Ki [2],Ki [3]
CC[C@@H]1OCC(=O)[C@H]1NC(=O)[C@H](CC1(C)CCCC1)NC(=O)c1ccc(NS(C)(=O)=O)cc1,290 nM,2.6 nM,12000 nM
CC[C@@H]1OCC(=O)[C@H]1NC(=O)[C@H](CC1(C)CCCC1)NC(=O)c1ccc(NS(=O)(=O)c2cnccc2C)cc1,260 nM,0.9 nM,8700 nM
CC[C@@H]1OCC(=O)[C@H]1NC(=O)[C@H](CC1(C)CCCC1)NC(=O)c1ccc(NS(=O)(=O)c2ccccc2)c(C)c1,730 nM,4 nM,2300 nM
CC[C@@H]1OCC(=O)[C@H]1NC(=O)[C@H](CC1(C)CCCC1)NC(=O)c1ccc(NS(=O)(=O)c2ccccc2)c(Cl)c1,1600 nM,12 nM,1100 nM
CC[C@@H]1OCC(=O)[C@H]1NC(=O)[C@H](CC1(C)CCCC1)NC(=O)c1ccc(NS(=O)(=O)c2nc(C(C)C)cs2)cc1,1700 nM,5.7 nM,9100 nM
CC[C@@H]1OCC(=O)[C@H]1NC(=O)[C@H](CC1(C)CCCC1)NC(=O)c1ccc(NS(=O)(=O)c2sc(C)nc2C)cc1,1800 nM,0.7 nM,16000 nM
CC[C@@H]1OCC(=O)[C@H]1NC(=O)[C@H](CC1(C)CCCC1)NC(=O)c1ccc(NS(=O)(=O)c2ccc(F)cc2)cc1,370 nM,2 nM,5900 nM
CC[C@@H]1OCC(=O)[C@H]1NC(=O)[C@H](CC1(C)CCCC1)NC(=O)c1ccc(NS(=O)(=O)c2cccc(F)c2)cc1,520 nM,3.4 nM,7800 nM
CC[C@@H]1OCC(=O)[C@H]1NC(=O)[C@H](CC1(C)CCCC1)NC(=O)c1ccc(NS(=O)(=O)Cc2ccccc2)cc1,1700 nM,31 nM,15000 nM
CC[C@@H]1OCC(=O)[C@H]1NC(=O)[C@H](CC1(C)CCCC1)NC(=O)c1ccc(NS(=O)(=O)c2ccccc2C)cc1,550 nM,3.9 nM,8400 nM
CC[C@@H]1OCC(=O)[C@H]1NC(=O)[C@H](CC1(C)CCCC1)NC(=O)c1ccc(NS(=O)(=O)c2ccc(N)cc2)cc1,950 nM,1.3 nM,9100 nM
CC[C@@H]1OCC(=O)[C@H]1NC(=O)[C@H](CC1(C)CCCC1)NC(=O)c1ccc(NS(=O)(=O)c2ccc(OC)cc2)cc1,500 nM,3.3 nM,11000 nM
CC[C@@H]1OCC(=O)[C@H]1NC(=O)[C@H](CC1(C)CCCC1)NC(=O)c1ccc(NS(=O)(=O)c2cccc(OC)c2)cc1,270 nM,1 nM,14000 nM
CC[C@@H]1OCC(=O)[C@H]1NC(=O)[C@H](CC1(C)CCCC1)NC(=O)c1ccc(NS(C)(=O)=O)cc1OC,5000 nM,330 nM,29000 nM
CC[C@@H]1OCC(=O)[C@H]1NC(=O)[C@H](CC1(C)CCCC1)NC(=O)c1ccc(NS(C)(=O)=O)c(C)c1,240 nM,4.9 nM,2000 nM
CC[C@@H]1OCC(=O)[C@H]1NC(=O)[C@H](CC1(C)CCCC1)NC(=O)c1ccc(NS(=O)(=O)C2CC2)cc1,440 nM,2.4 nM,12000 nM
CC[C@@H]1OCC(=O)[C@H]1NC(=O)[C@H](CC1(C)CCCC1)NC(=O)c1ccc(NS(=O)(=O)CC)cc1,470 nM,1.9 nM,17000 nM
CC[C@@H]1OCC(=O)[C@H]1NC(=O)[C@H](CC1(C)CCCC1)NC(=O)c1ccc(NS(C)(=O)=O)c(OC)c1,560 nM,26 nM,7200 nM
CC[C@@H]1OCC(=O)[C@H]1NC(=O)[C@H](CC1(C)CCCC1)NC(=O)c1ccc(NS(=O)(=O)c2cccnc2)cc1,570 nM,2.1 nM,14000 nM
CC[C@@H]1OCC(=O)[C@H]1NC(=O)[C@H](CC1(C)CCCC1)NC(=O)c1ccc(NS(=O)(=O)c2ccccn2)cc1,450 nM,2.3 nM,13000 nM
CC[C@@H]1OCC(=O)[C@H]1NC(=O)[C@H](CC1(C)CCCC1)NC(=O)c1ccc(NS(C)(=O)=O)c(F)c1,700 nM,16 nM,7800 nM
CC[C@@H]1OCC(=O)[C@H]1NC(=O)[C@H](CC1(C)CCCC1)NC(=O)c1ccc(NS(C)(=O)=O)c(C(C)=O)c1,750 nM,57 nM,9500 nM
CC[C@@H]1OCC(=O)[C@H]1NC(=O)[C@H](CC1(C)CCCC1)NC(=O)c1ccc(NS(=O)(=O)c2ccncc2)cc1,1100 nM,2.7 nM,13000 nM
CC[C@@H]1OCC(=O)[C@H]1NC(=O)[C@H](CC1(C)CCCC1)NC(=O)c1ccc(NS(=O)(=O)c2nc(C)cs2)cc1,3000 nM,13 nM,27000 nM

SMILES,Ki [1],Ki [2],Ki [3]
CC[C@@H]1OCC(=O)[C@H]1NC(=O)[C@H](CC1(C)CCCC1)NC(=O)c1cccc(NS(C)(=O)=O)c1,1500 nM,12 nM,2500 nM
CC[C@@H]1OCC(=O)[C@H]1NC(=O)[C@H](CC1(C)CCCC1)NC(=O)c1ccc(NS(=O)(=O)c2ncc(C)s2)cc1,2300 nM,8.6 nM,17000 nM
CC[C@@H]1OCC(=O)[C@H]1NC(=O)[C@H](CC1(C)CCCC1)NC(=O)c1ccc(N(C)S(C)(=O)=O)cc1,98 nM,110 nM,11000 nM
CC[C@@H]1OCC(=O)[C@H]1NC(=O)[C@H](CC1(C)CCCC1)NC(=O)c1ccc(S(=O)(=O)NC)cc1,420 nM,140 nM,27000 nM
CC[C@@H]1OCC(=O)[C@H]1NC(=O)[C@H](CC1(C)CCCC1)NC(=O)c1cccc(S(=O)(=O)NC)c1,23000 nM,190 nM,15000 nM
CC[C@@H]1OCC(=O)[C@H]1NC(=O)[C@H](CC1(C)CCCC1)NC(=O)c1ccc(NS(=O)(=O)C2CCCCC2)cc1,950 nM,180 nM,64000 nM
CC[C@@H]1OCC(=O)[C@H]1NC(=O)[C@H](CC1(C)CCCC1)NC(=O)c1ccc(NS(=O)(=O)c2cccs2)cc1,1000 nM,2.3 nM,13000 nM
CC[C@@H]1OCC(=O)[C@H]1NC(=O)[C@H](CC1(C)CCCC1)NC(=O)c1ccc(NS(=O)(=O)C(C)C)cc1,500 nM,2.9 nM,15000 nM
CC[C@@H]1OCC(=O)[C@H]1NC(=O)[C@H](CC1(C)CCCC1)NC(=O)c1ccc(NS(=O)(=O)c2ccccc2)cc1,430 nM,0.8 nM,11000 nM
CC[C@@H]1OCC(=O)[C@H]1NC(=O)[C@H](CC(C)(C)C)NC(=O)c1ccsc1,318 nM,31 nM,10000 nM
CC[C@@H]1OCC(=O)[C@H]1NC(=O)[C@H](CC1(C)CCCC1)NC(=O)c1ccc(NS(=O)(=O)c2ccc(C#N)cc2)cc1,950 nM,1.1 nM,7900 nM
CC[C@@H]1OCC(=O)[C@H]1NC(=O)[C@H](CC1(C)CCCC1)NC(=O)c1ccc(NS(=O)(=O)c2ccccc2C#N)cc1,820 nM,0.8 nM,8500 nM
CC[C@@H]1OCC(=O)[C@H]1NC(=O)[C@H](CC1(C)CCCC1)NC(=O)c1ccc(NS(=O)(=O)c2cccnc2Cl)cc1,800 nM,5.9 nM,23000 nM
CC[C@@H]1OCC(=O)[C@H]1NC(=O)[C@H](CC1(C)CCCC1)NC(=O)c1ccc(NS(=O)(=O)c2ccccc2F)cc1,980 nM,3.8 nM,11000 nM
CC[C@@H]1OCC(=O)[C@H]1NC(=O)[C@H](CC1(C)CCCC1)NC(=O)c1ccc(NS(=O)(=O)c2cccc(C#N)c2)cc1,730 nM,0.6 nM,6800 nM
CC[C@@H]1OCC(=O)[C@H]1NC(=O)[C@H](CC1(C)CCCC1)NC(=O)c1ccc(NS(C)(=O)=O)cc1C,1900 nM,30 nM,23000 nM
CC[C@@H]1OCC(=O)[C@H]1NC(=O)[C@H](CC1(C)CCCC1)NC(=O)c1ccc(NS(=O)(=O)c2ccccc2)nc1,2200 nM,56 nM,31000 nM
CCCCS(=O)(=O)Nc1ccc(C(=O)N[C@@H](CC2(C)CCCC2)C(=O)N[C@@H]2C(=O)CO[C@H]2CC)cc1,1500 nM,3.4 nM,21000 nM
CC[C@@H]1OCC(=O)[C@H]1NC(=O)[C@H](CC1(C)CCCC1)NC(=O)c1ccc(NS(C)(=O)=O)c(Cl)c1,840 nM,5.6 nM,970 nM
CC[C@@H]1OCC(=O)[C@H]1NC(=O)[C@H](CC1(C)CCCC1)NC(=O)c1ccc(NS(=O)(=O)c2nccn2C)cc1,640 nM,4.5 nM,24000 nM
CC[C@@H]1OCC(=O)[C@H]1NC(=O)[C@H](CC1(C)CCCC1)NC(=O)c1ccc(NS(=O)(=O)C(F)(F)F)cc1,1200 nM,8.3 nM,15000 nM
CC[C@@H]1OCC(=O)[C@H]1NC(=O)[C@H](CC1(C)CCCC1)NC(=O)c1ccc(NS(C)(=O)=O)nc1,1200 nM,63 nM,14000 nM
CC[C@@H]1OCC(=O)[C@H]1NC(=O)[C@H](CC1(C)CCCC1)NC(=O)c1ccc(NS(=O)(=O)N(C)C)cc1,300 nM,5.3 nM,16000 nM
